Assay results taken from ChEMBL document CHEMBL1127219, “A convergent synthesis of 4-(2-benzothiazoyl)piperidines with antihistamic activity” (Bioorg Med Chem Lett, 1993).

Tests used:
Cavia porcellus = species on record: Cavia porcellus; experiment: Concentration required to antagonize the histamine induced contractile response of guinea pig ileum; assay type: functional; conditions: read-out: pA2 (converted)
[1] = Dose causing 50% death of the population when tested in mice; assay type: ADME; conditions: mouse, in vivo

SMILES	Kb (Cavia porcellus)	LD50 [1]
COc1ccc(CCN2CCC(C(=O)c3nc4ccccc4s3)CC2)cc1	0.501 nM	> 400 mg/kg
COc1ccc(CCN2CCC(C(O)(c3ccccc3)c3nc4ccccc4s3)CC2)cc1 (centres undefined)	39.8 nM	
COc1ccc(OCCCN2CCC(C(=O)c3nc4ccccc4s3)CC2)cc1	5.01 nM	> 400 mg/kg
COc1ccc(CCN2CCC(C(O)c3nc4ccccc4s3)CC2)cc1 (centres undefined)	6.31 nM	
C=C(c1nc2ccccc2s1)C1CCN(CCc2ccc(OC)cc2)CC1	1.58 nM	
O=C(c1nc2ccccc2s1)C1CCN(CCc2ccccc2)CC1	15.8 nM	> 400 mg/kg
COc1cccc(CN2CCC(C(=O)c3nc4ccccc4s3)CC2)c1	50.1 nM	400 mg/kg
COC(=O)CN1CCC(C(=O)c2nc3ccccc3s2)CC1	~100 nM	> 400 mg/kg
COC(=O)c1ccc(OCCCN2CCC(C(=O)c3nc4ccccc4s3)CC2)cc1	2.51 nM	> 400 mg/kg
CC(=O)Nc1ccc(OCCCN2CCC(C(=O)c3nc4ccccc4s3)CC2)cc1	7.94 nM	> 400 mg/kg
O=C(c1nc2ccccc2s1)C1CCN(CCc2ccc(F)cc2)CC1	3.98 nM	> 400 mg/kg
